From US9593149B2, “Amylin and calcitonin receptor agonist” (Novo Nordisk A/S, priority 2014, dated 2017)
In brackets after ≈: the same amount, converted by molar mass. Numbered stars: 1 amine (or outer) side, 2 acyl side, 3 side chain; on linkers, the order of the positions; unused ones are H or OH. Peptide text beside a SMILES is read from it. * marks the point of attachment. C20 diacid = O=C(O)CCCCCCCCCCCCCCCCCCC(=O)*; C18 diacid = O=C(O)CCCCCCCCCCCCCCCCC(=O)*; γGlu = O=C(O)[C@H](CCC(=O)[*:2])N[*:1]

Assay: Assay (IV) determination of solubility
Type: physicochemical
Experimental: Assay (IV)—Determination of Solubility
The mimylin peptide was dissolved in water at ˜500 nmol/ml and mixed 1:1 with a series of buffers (100 mM glycylglycine pH 3.0, 100 mM glycylglycine pH 4.0, 100 mM glycylglycine pH 5.0, 100 mM bistrispropane pH 6.0, 100 mM bistrispropane pH 6.5, 100 mM bistrispropane pH 7.0, 100 mM bistrispropane pH 7.5, 100 mM bistrispropane pH 8.0).

Structure (SMILES) | Solubility (pH 3.0) | solubility at 18 h (pH 4.0) [µM] | Solubility (pH 6.0) | Solubility (pH 6.5) | Solubility (pH 7.0) | Solubility (pH 7.5) | Solubility (pH 8.0) | Solubility (pH 4.0) | Solubility (pH 5.0) | solubility at 18 h (pH 5.0) [µM]
CC(C)C[C@H](NC(=O)CC[C@H](NC(=O)CCCCCCCCCCCCCCCCCCC(=O)O)C(=O)O)C(=O)N[C@@H](CO)C(=O)NCC(=O)N[C@@H](CC(C)C)C(=O)N[C@@H](CO)C(=O)N[C@H](C(=O)N[C@@H](C)C(=O)N[C@H](C(=O)N[C@@H](CC(C)C)C(=O)NCC(=O)N[C@@H](CCCNC(=N)N)C(=O)N[C@@H](CC(C)C)C(=O)N[C@@H](CO)C(=O)N[C@@H](CCC(N)=O)C(=O)N[C@@H](CCC(=O)O)C(=O)N[C@@H](CC(C)C)C(=O)N[C@@H](Cc1cnc[nH]1)C(=O)N[C@@H](CCC(=O)O)C(=O)N[C@@H](CC(C)C)C(=O)N[C@@H](CCC(N)=O)C(=O)N[C@H](C(=O)N[C@@H](Cc1ccc(O)cc1)C(=O)N1CCC[C@H]1C(=O)N[C@@H](CCCNC(=N)N)C(=O)N[C@H](C(=O)N[C@@H](CCC(=O)O)C(=O)N[C@H](C(=O)NCC(=O)N[C@@H](CO)C(=O)N[C@@H](CCC(N)=O)C(=O)N[C@H](C(=O)N[C@@H](Cc1ccc(O)cc1)C(N)=O)[C@@H](C)O)[C@@H](C)O)[C@@H](C)O)[C@@H](C)O)C(C)C)[C@@H](C)O [compound 127, [N-terminal(C20 diacid-gGlu), des1, 2L, 4G, 9V, 15Q, 21Q, 23Y, 30S, 31Q, 32T, 33Y]mimylin] ({C20 diacid-γGlu}-LSGLSTAVLGRLSQELHELQTYPRTETGSQTY-NH2) | ≧200 μM | 31 (≈ 124 µg/mL) | ≧200 μM | ≧200 μM | ≧200 μM | ≧200 μM | ≧200 μM | – | – | –
CC(C)C[C@H](NC(=O)[C@H](CCC(=O)O)NC(=O)[C@H](Cc1cnc[nH]1)NC(=O)[C@H](CC(C)C)NC(=O)[C@H](CCC(=O)O)NC(=O)[C@H](C)NC(=O)[C@H](CO)NC(=O)[C@H](CC(C)C)NC(=O)[C@H](CCCNC(=N)N)NC(=O)CNC(=O)[C@H](CC(C)C)NC(=O)[C@@H](NC(=O)[C@H](C)NC(=O)[C@@H](NC(=O)[C@H](CO)NC(=O)[C@H](CC(C)C)NC(=O)[C@@H]1CCCN1C(=O)[C@H](CO)NC(=O)[C@H](C)NC(=O)[C@H](CCC(=O)O)NC(=O)CCCCCCCCCCCCCCCCC(=O)O)[C@@H](C)O)C(C)C)C(=O)N[C@@H](C)C(=O)N[C@H](C(=O)N[C@@H](CC(C)C)C(=O)N1CCC[C@H]1C(=O)N[C@@H](CCCNC(=N)N)C(=O)N[C@H](C(=O)N[C@@H](CCC(=O)O)C(=O)N[C@H](C(=O)NCC(=O)N1CCC[C@H]1C(=O)N[C@@H](CCC(=O)O)C(=O)N[C@@H](CO)C(=O)N1CCC[C@H]1C(N)=O)[C@@H](C)O)[C@@H](C)O)[C@@H](C)O [compound 30, [N-terminal(C18 diacid), 4P, 9V]mimylin] ({C18 diacid}-EASPLSTAVLGRLSAELHELATLPRTETGPESP-NH2) | ≧200 μM | – | ≧200 μM | ≧200 μM | ≧200 μM | ≧200 μM | ≧200 μM | ≧200 μM | ≧200 μM | –
CC(C)C[C@H](NC(=O)[C@H](CCC(=O)O)NC(=O)[C@H](C)NC(=O)[C@H](CO)NC(=O)[C@H](CC(C)C)NC(=O)[C@H](CCCNC(=N)N)NC(=O)CNC(=O)[C@H](CC(C)C)NC(=O)[C@@H](NC(=O)[C@H](C)NC(=O)[C@@H](NC(=O)[C@H](CO)NC(=O)[C@H](CC(C)C)NC(=O)[C@H](CCC(=O)O)NC(=O)[C@H](CO)NC(=O)[C@H](C)NC(=O)[C@H](CCC(=O)O)NC(=O)CCCCCCCCCCCCCCCCC(=O)O)[C@@H](C)O)C(C)C)C(=O)N[C@@H](C)C(=O)N[C@@H](CCC(=O)O)C(=O)N[C@@H](CC(C)C)C(=O)N[C@@H](C)C(=O)N[C@H](C(=O)N[C@@H](CC(C)C)C(=O)N1CCC[C@H]1C(=O)N[C@@H](CCCNC(=N)N)C(=O)N[C@H](C(=O)N[C@@H](CCC(=O)O)C(=O)N[C@H](C(=O)NCC(=O)N1CCC[C@H]1C(=O)N[C@@H](CCC(=O)O)C(=O)N[C@@H](CO)C(=O)N1CCC[C@H]1C(N)=O)[C@@H](C)O)[C@@H](C)O)[C@@H](C)O [compound 33, [N-terminal(C18 diacid), 9V, 18A]mimylin] ({C18 diacid}-EASELSTAVLGRLSAELAELATLPRTETGPESP-NH2) | ≧200 μM | 1 (≈ 3.69 µg/mL) | ≧200 μM | ≧200 μM | ≧200 μM | ≧200 μM | ≧200 μM | – | ≧200 μM | –
CC(C)C[C@H](NC(=O)CC[C@H](NC(=O)CCCCCCCCCCCCCCCCCCC(=O)O)C(=O)O)C(=O)N[C@@H](CO)C(=O)NCC(=O)N[C@@H](CC(C)C)C(=O)N[C@@H](CO)C(=O)N[C@H](C(=O)N[C@@H](C)C(=O)N[C@H](C(=O)N[C@@H](CC(C)C)C(=O)NCC(=O)N[C@@H](CCCNC(=N)N)C(=O)N[C@@H](CC(C)C)C(=O)N[C@@H](CO)C(=O)N[C@@H](C)C(=O)N[C@@H](CCC(=O)O)C(=O)N[C@@H](CC(C)C)C(=O)N[C@@H](Cc1cnc[nH]1)C(=O)N[C@@H](CCC(=O)O)C(=O)N[C@@H](CC(C)C)C(=O)N[C@@H](CO)C(=O)N[C@H](C(=O)N[C@@H](Cc1ccc(O)cc1)C(=O)N1CCC[C@H]1C(=O)N[C@@H](CCCNC(=N)N)C(=O)N[C@H](C(=O)N[C@@H](CCC(=O)O)C(=O)N[C@H](C(=O)NCC(=O)N[C@@H](CO)C(=O)NCC(=O)N[C@H](C(=O)N[C@@H](Cc1ccc(O)cc1)C(N)=O)[C@@H](C)O)[C@@H](C)O)[C@@H](C)O)[C@@H](C)O)C(C)C)[C@@H](C)O [compound 123, [N-terminal(C20 diacid-gGlu), des1, 2L, 4G, 9V, 21S, 23Y, 30S, 31G, 32T, 33Y]mimylin] ({C20 diacid-γGlu}-LSGLSTAVLGRLSAELHELSTYPRTETGSGTY-NH2) | ≧200 μM | – | ≧200 μM | ≧200 μM | ≧200 μM | ≧200 μM | ≧200 μM | ≧200 μM | – | 2 (≈ 7.64 µg/mL)
CC(C)C[C@H](NC(=O)CNC(=O)[C@H](CO)NC(=O)[C@H](C)NC(=O)CC[C@H](NC(=O)CCCCCCCCCCCCCCCCCCC(=O)O)C(=O)O)C(=O)N[C@@H](CO)C(=O)N[C@H](C(=O)N[C@@H](C)C(=O)N[C@@H](C)C(=O)N[C@@H](CC(C)C)C(=O)NCC(=O)N[C@@H](CCCNC(=N)N)C(=O)N[C@@H](CC(C)C)C(=O)N[C@@H](CO)C(=O)N[C@@H](CCC(=O)O)C(=O)N[C@@H](CCC(=O)O)C(=O)N[C@@H](CC(C)C)C(=O)N[C@@H](Cc1cnc[nH]1)C(=O)N[C@@H](CCC(=O)O)C(=O)N[C@@H](CC(C)C)C(=O)N[C@@H](CCC(N)=O)C(=O)N[C@H](C(=O)N[C@@H](Cc1ccc(O)cc1)C(=O)N1CCC[C@H]1C(=O)N[C@@H](CCCNC(=N)N)C(=O)N[C@H](C(=O)N[C@@H](CCC(=O)O)C(=O)N[C@H](C(=O)NCC(=O)N[C@@H](CO)C(=O)NCC(=O)N[C@H](C(=O)N[C@@H](Cc1ccc(O)cc1)C(N)=O)[C@@H](C)O)[C@@H](C)O)[C@@H](C)O)[C@@H](C)O)[C@@H](C)O [compound 113, [N-terminal(C20 diacid-gGlu), des1, 4G, 15E, 21Q, 23Y, 30S, 31G, 32T, 33Y]mimylin] ({C20 diacid-γGlu}-ASGLSTAALGRLSEELHELQTYPRTETGSGTY-NH2) | ≧200 μM | 195 (≈ 751 µg/mL) | ≧200 μM | ≧200 μM | ≧200 μM | ≧200 μM | ≧200 μM | – | – | 57 (≈ 219 µg/mL)
CC(C)C[C@H](NC(=O)CNC(=O)[C@H](CO)NC(=O)[C@H](C)NC(=O)CC[C@H](NC(=O)CCCCCCCCCCCCCCCCCCC(=O)O)C(=O)O)C(=O)N[C@@H](CO)C(=O)N[C@H](C(=O)N[C@@H](C)C(=O)N[C@@H](C)C(=O)N[C@@H](CC(C)C)C(=O)NCC(=O)N[C@@H](CCCNC(=N)N)C(=O)N[C@@H](CC(C)C)C(=O)N[C@@H](CO)C(=O)N[C@H](C(=O)N[C@@H](CCC(=O)O)C(=O)N[C@@H](CC(C)C)C(=O)N[C@@H](Cc1cnc[nH]1)C(=O)N[C@@H](CCC(=O)O)C(=O)N[C@@H](CC(C)C)C(=O)N[C@@H](CCC(=O)O)C(=O)N[C@H](C(=O)N[C@@H](Cc1ccc(O)cc1)C(=O)N1CCC[C@H]1C(=O)N[C@@H](CCCNC(=N)N)C(=O)N[C@H](C(=O)N[C@@H](CCC(=O)O)C(=O)N[C@H](C(=O)NCC(=O)N[C@@H](CO)C(=O)NCC(=O)N[C@H](C(=O)N[C@@H](Cc1ccc(O)cc1)C(N)=O)[C@@H](C)O)[C@@H](C)O)[C@@H](C)O)[C@@H](C)O)[C@@H](C)O)[C@@H](C)O [compound 112, [N-terminal(C20 diacid-gGlu), des1, 4G, 15T, 21E, 23Y, 30S, 31G, 32T, 33Y]mimylin] ({C20 diacid-γGlu}-ASGLSTAALGRLSTELHELETYPRTETGSGTY-NH2) | ≧200 μM | 132 (≈ 505 µg/mL) | ≧200 μM | ≧200 μM | ≧200 μM | ≧200 μM | ≧200 μM | – | – | 22 (≈ 84.1 µg/mL)
